Values quoted from earlier work, collected in patent US20050250118A1 (priority 2003, published 2005).

Key:
AD patients [1] = settings: galantamine therapy
AD patients [2] = settings: presence of the ApoE4 polymorphism

SMILES | most common side effects (AD patients [1]) | response to treatment with ApoE4 allele present (AD patients [2])
COc1ccc2c3c1O[C@H]1C[C@@H](O)C=C[C@@]31CCN(C)C2 [galantamine] | nausea, vomiting, diarrhea, dizziness and anorexia | 
Nc1c2c(nc3ccccc13)CCCC2 [tacrine] |  | reduced response to treatment
